18 compounds from patent US20210015098A1, “MOLECULES HAVING PESTICIDAL UTILITY, AND INTERMEDIATES, COMPOSITIONS, AND PROCESSES, RELATED THERETO” (DOW AGROSCIENCES LLC, priority 2018, published 2021) can be followed below.

Each structure is given as a SMILES string.

Experiment [1] concerns Beet Armyworm (Spodoptera exigua, LAPHEG). Kind of experiment: Bioassays on Beet Armyworm (BAW), 128-well diet tray assay. Format: in vivo. To be noted: Beet Armyworm, Table ABC Biological Results, read-out: BAW (rating). As for the experimental part:
(§1) Certain molecules disclosed in this document were tested against BAW and CL using procedures described in the following examples. In the reporting of the results, the “BAW & CL Rating Table” was used (See Table Section).
Bioassays on BAW were conducted using a 128-well diet tray assay. One to five second instar BAW larvae were placed in each well (3 mL) of the diet tray that had been previously filled with 1 mL of artificial diet to which 50 μg/cm^2 of the test molecule (dissolved in 50 μL of 90:10 acetone-water mixture) had been applied (to each of eight wells) and then allowed to dry. Trays were covered with a clear self-adhesive cover, vented to allow gas exchange, and held at 25° C., 14:10 light-dark for five to seven days. Percent mortality was recorded for the larvae in each well; activity in the eight wells was then averaged. The results are indicated in the table entitled “Table ABC: Biological Results” (See Table Section).

For experiment [2], the system named is Cabbage Looper (Trichoplusia ni, TRIPNI). In words: Bioassays on Cabbage Looper (CL), 128-well diet tray assay. Conditions: Cabbage Looper, Table ABC Biological Results, read-out: CL (rating). Format: in vivo. As for the experimental part:
as §1
Bioassays on CL were conducted using a 128-well diet tray assay. One to five second instar CL larvae were placed in each well (3 mL) of the diet tray that had been previously filled with 1 mL of artificial diet to which 50 μg/cm^2 of the test molecule (dissolved in 50 μL of 90:10 acetone-water mixture) had been applied (to each of eight wells) and then allowed to dry. Trays were covered with a clear self-adhesive cover, vented to allow gas exchange, and held at 25° C., 14:10 light-dark for five to seven days. Percent mortality was recorded for the larvae in each well; activity in the eight wells was then averaged. The results are indicated in the table entitled “Table ABC: Biological Results” (See Table Section).

For the compound `O=C(CSCC(F)(F)F)Nc1c(F)ccc(NC(=O)c2cc(NC(=O)[C@H]3[C@H](c4ccc(Cl)c(Cl)c4)C3(Cl)Cl)ccc2Cl)c1F` [F9, 2-Chloro-5-((1R,3R)-2,2-dichloro-3-(3,4-dichlorophenyl)cyclopropane-1-carboxamido)-N-(2,4-difluoro-3-(2-((2,2,2-trifluoroethyl)thio)acetamido)phenyl)benzamide], the pest or weed control at 50 µg/cm2 in experiment [1] and in experiment [2] was 50 to 100% in each case.

For `CC(SC(F)(F)F)C(=O)Nc1c(F)ccc(NC(=O)c2cc(NC(=O)[C@H]3[C@H](c4ccc(Cl)c(Cl)c4)C3(Cl)Cl)ccc2Cl)c1F` (stereo partly drawn) [F10, 2-Chloro-5-((1R,3R)-2,2-dichloro-3-(3,4-dichlorophenyl)cyclopropane-1-carboxamido)-N-(2,4-difluoro-3-(2-((trifluoromethyl)thio)propanamido)phenyl)benzamide], the pest or weed control at 50 µg/cm2 in experiment [1] and in experiment [2] was 50 to 100% throughout.

For the compound `O=C(CSC(F)(F)F)Nc1c(F)ccc(NC(=O)c2cc(NC(=O)[C@H]3[C@H](c4ccc(Cl)c(Cl)c4)C3(Cl)Cl)ccc2Cl)c1F` [F11, 2-Chloro-5-((1R,3R)-2,2-dichloro-3-(3,4-dichlorophenyl)cyclopropane-1-carboxamido)-N-(2,4-difluoro-3-(2-((trifluoromethyl)thio)acetamido)phenyl)benzamide], the pest or weed control at 50 µg/cm2 in experiment [1] and in experiment [2] was 50 to 100% each time.

For the compound `O=C(CSCC(F)(F)F)Nc1c(F)ccc(NC(=O)c2cc(NC(=O)[C@H]3[C@H](c4ccc(F)c(Cl)c4)C3(Cl)Cl)ccc2Cl)c1F` [F12, 2-Chloro-5-((1R,3R)-2,2-dichloro-3-(3-chloro-4-fluorophenyl)cyclopropane-1-carboxamido)-N-(2,4-difluoro-3-(2-((2,2,2-trifluoroethyl)thio)acetamido)phenyl)benzamide], the pest or weed control at 50 µg/cm2 in experiment [1] and in experiment [2] was 50 to 100% each time.

With `CC(SC(F)(F)F)C(=O)Nc1c(F)ccc(NC(=O)c2cc(NC(=O)[C@H]3[C@H](c4ccc(F)c(Cl)c4)C3(Cl)Cl)ccc2Cl)c1F` (stereo partly drawn) [F13, 2-Chloro-5-((1R,3R)-2,2-dichloro-3-(3-chloro-4-fluorophenyl)cyclopropane-1-carboxamido)-N-(2,4-difluoro-3-(2-((trifluoromethyl)thio)propanamido)phenyl)benzamide], the pest or weed control at 50 µg/cm2 in experiment [1] and in experiment [2] was 50 to 100% throughout.

Turning to `O=C(CSC(F)(F)F)Nc1c(F)ccc(NC(=O)c2cc(NC(=O)[C@H]3[C@H](c4ccc(F)c(Cl)c4)C3(Cl)Cl)ccc2Cl)c1F` [F14, 2-Chloro-5-((1R,3R)-2,2-dichloro-3-(3-chloro-4-fluorophenyl)cyclopropane-1-carboxamido)-N-(2,4-difluoro-3-(2-((trifluoromethyl)thio)acetamido)phenyl)benzamide], the pest or weed control at 50 µg/cm2 in experiment [1] and in experiment [2] was 50 to 100% in each case.

With `O=C(CCSc1ccccc1)Nc1c(F)ccc(NC(=O)c2cc(NC(=O)[C@H]3[C@H](c4ccc(F)c(C(F)(F)F)c4)C3(Cl)Cl)ccc2Cl)c1F` [F20, 2-Chloro-5-((1R,3R)-2,2-dichloro-3-(4-fluoro-3-(trifluoromethyl)phenyl)cyclopropane-1-carboxamido)-N-(2,4-difluoro-3-(3-(phenylthio)propanamido)phenyl)benzamide], the pest or weed control at 50 µg/cm2 in experiment [1] and in experiment [2] was 50 to 100% each time.

With `O=C(CCSC(F)(F)F)Nc1c(F)ccc(NC(=O)c2cc(NC(=O)[C@H]3[C@H](c4ccc(F)c(C(F)(F)F)c4)C3(Cl)Cl)ccc2Cl)c1F` [F22, 2-Chloro-5-((1R,3R)-2,2-dichloro-3-(4-fluoro-3-(trifluoromethyl)phenyl)cyclopropane-1-carboxamido)-N-(2,4-difluoro-3-(3-((trifluoromethyl)thio)propanamido)phenyl)benzamide], the pest or weed control at 50 µg/cm2 in experiment [1] and in experiment [2] was 50 to 100% each time.

Turning to `O=C(C[S+]([O-])C(F)(F)F)Nc1c(F)ccc(NC(=O)c2cc(NC(=O)[C@H]3[C@H](c4cc(Cl)c(Cl)c(Cl)c4)C3(Cl)Cl)ccc2Cl)c1F` (stereo partly drawn) [F26, 2-Chloro-5-((1R,3R)-2,2-dichloro-3-(3,4,5-trichlorophenyl)cyclopropane-1-carboxamido)-N-(2,4-difluoro-3-(2-((trifluoromethyl)sulfinyl)acetamido)phenyl)benzamide], the pest or weed control at 50 µg/cm2 in experiment [1] and in experiment [2] was 50 to 100% throughout.

Regarding `CC(C(=O)Nc1c(F)ccc(NC(=O)c2cc(NC(=O)[C@H]3[C@H](c4ccc(F)c(Cl)c4)C3(Cl)Cl)ccc2Cl)c1F)[S+]([O-])C(F)(F)F` (stereo partly drawn) [F27, 2-Chloro-5-((1R,3R)-2,2-dichloro-3-(3-chloro-4-fluorophenyl)cyclopropane-1-carboxamido)-N-(2,4-difluoro-3-(2-((trifluoromethyl)sulfinyl)propanamido)phenyl)benzamide], the pest or weed control at 50 µg/cm2 in experiment [1] and in experiment [2] was 50 to 100% throughout.

For `O=C(C[S+]([O-])C(F)(F)F)Nc1c(F)ccc(NC(=O)c2cc(NC(=O)[C@H]3[C@H](c4ccc(F)c(Cl)c4)C3(Cl)Cl)ccc2Cl)c1F` (stereo partly drawn) [F28, 2-Chloro-5-((1R,3R)-2,2-dichloro-3-(3-chloro-4-fluorophenyl)cyclopropane-1-carboxamido)-N-(2,4-difluoro-3-(2-((trifluoromethyl)sulfinyl)acetamido)phenyl)benzamide], the pest or weed control at 50 µg/cm2 in experiment [1] and in experiment [2] was 50 to 100% throughout.

For the compound `O=C(C[S+]([O-])CC(F)(F)F)Nc1c(F)ccc(NC(=O)c2cc(NC(=O)[C@H]3[C@H](c4cc(Cl)c(Cl)c(Cl)c4)C3(Cl)Cl)ccc2Cl)c1F` (stereo partly drawn) [F29, 2-Chloro-5-((1R,3R)-2,2-dichloro-3-(3,4,5-trichlorophenyl)cyclopropane-1-carboxamido)-N-(2,4-difluoro-3-(2-((2,2,2-trifluoroethyl)sulfinyl)acetamido)phenyl)benzamide], the pest or weed control at 50 µg/cm2 in experiment [1] and in experiment [2] was 50 to 100% throughout.

Regarding `O=C(C[S+]([O-])CC(F)(F)F)Nc1c(F)ccc(NC(=O)c2cc(NC(=O)[C@H]3[C@H](c4ccc(Cl)c(Cl)c4)C3(Cl)Cl)ccc2Cl)c1F` (stereo partly drawn) [F30, 2-chloro-5-((R,3R)-2,2-dichloro-3-(3,4-dichlorophenyl)cyclopropane-1-carboxamido)-N-(2,4-difluoro-3-(2-((2,2,2-trifluoroethyl)sulfinyl)acetamido)phenyl)benzamide], the pest or weed control at 50 µg/cm2 in experiment [1] and in experiment [2] was 50 to 100% throughout.

For `O=C(C[S+]([O-])CC(F)(F)F)Nc1c(F)ccc(NC(=O)c2cc(NC(=O)[C@H]3[C@H](c4ccc(F)c(Cl)c4)C3(Cl)Cl)ccc2Cl)c1F` (stereo partly drawn) [F31, 2-Chloro-5-((1R,3R)-2,2-dichloro-3-(3-chloro-4-fluorophenyl)cyclopropane-1-carboxamido)-N-(2,4-difluoro-3-(2-((2,2,2-trifluoroethyl)sulfinyl)acetamido)phenyl)benzamide], the pest or weed control at 50 µg/cm2 in experiment [1] and in experiment [2] was 50 to 100% in each case.

`O=C(C[S+]([O-])C(F)(F)F)Nc1c(F)ccc(NC(=O)c2cc(NC(=O)[C@H]3[C@H](c4ccc(F)c(C(F)(F)F)c4)C3(Cl)Cl)ccc2Cl)c1F` (stereo partly drawn) [F33, 2-chloro-5-((R,3R)-2,2-dichloro-3-(4-fluoro-3-(trifluoromethyl)phenyl)cyclopropane-1-carboxamido)-N-(2,4-difluoro-3-(2-((trifluoromethyl)sulfinyl)acetamido)phenyl)benzamide]: the pest or weed control at 50 µg/cm2 in experiment [1] and in experiment [2] was 50 to 100% in each case.

`CC(C(=O)Nc1c(F)ccc(NC(=O)c2cc(NC(=O)[C@H]3[C@H](c4cc(Cl)c(Cl)c(Cl)c4)C3(Cl)Cl)ccc2Cl)c1F)S(=O)(=O)C(F)(F)F` (stereo partly drawn) [F35, 2-Chloro-5-((1R,3R)-2,2-dichloro-3-(3,4,5-trichlorophenyl)cyclopropane-1-carboxamido)-N-(2,4-difluoro-3-(2-((trifluoromethyl)sulfonyl)propanamido)phenyl)benzamide]: the pest or weed control at 50 µg/cm2 in experiment [1] and in experiment [2] was 50 to 100% throughout.

With `O=C(CS(=O)(=O)C(F)(F)F)Nc1c(F)ccc(NC(=O)c2cc(NC(=O)[C@H]3[C@H](c4cc(Cl)c(Cl)c(Cl)c4)C3(Cl)Cl)ccc2Cl)c1F` [F36, 2-Chloro-5-((1R,3R)-2,2-dichloro-3-(3,4,5-trichlorophenyl)cyclopropane-1-carboxamido)-N-(2,4-difluoro-3-(2-((trifluoromethyl)sulfonyl)acetamido)phenyl)benzamide], the pest or weed control at 50 µg/cm2 in experiment [1] and in experiment [2] was 50 to 100% throughout.

Regarding `CC(C(=O)Nc1c(F)ccc(NC(=O)c2cc(NC(=O)[C@H]3[C@H](c4ccc(Cl)c(Cl)c4)C3(Cl)Cl)ccc2Cl)c1F)S(=O)(=O)C(F)(F)F` (stereo partly drawn) [F37, 2-Chloro-5-((1R,3R)-2,2-dichloro-3-(3,4-dichlorophenyl)cyclopropane-1-carboxamido)-N-(2,4-difluoro-3-(2-((trifluoromethyl)sulfonyl)propanamido)phenyl)benzamide], the pest or weed control at 50 µg/cm2 in experiment [1] and in experiment [2] was 50 to 100% each time.
